Source: PMC314469, “Protein Interaction Networks by Proteome Peptide Scanning” (PLoS Biology, 2004)

Tested on: Myo5 SH3 domain
Assay: SPOT analysis of cellulose-bound peptides (WISE), Myo5 SH3 domain (Dataset S4)
Assay type: binding, Saccharomyces cerevisiae
Details: for The normalized value in BLU units: Myo5 SH3 domain
[1] = SPOT analysis of cellulose-bound 14-mer yeast proteome peptides, normalized value, mean where the peptide was synthesized more than once
[2] = SPOT analysis of membrane-bound peptides, normalized value (see methods)
[3] = SPOT analysis of cellulose-bound peptides probed with Myo5 SH3 domain, normalized value
[4] = SPOT analysis of membrane-synthesized peptides probed with Myo5 SH3 domain, normalized value

With KEVDLTRPSAPSEP the “The normalized value in BLU units” value [1] was 132.2 BLU.

With KFDAKGRPIPPHPD the “The normalized value in BLU units” value [2] was 53.5 BLU.

With KFFKHLYPAIPILD the “The normalized value in BLU units” value [1] was 217.0 BLU.

For KFFKREYPDIPMIA, the “The normalized value in BLU units” value [2] was 154.6 BLU.

With KFLIHNEPIDPNDR the “The normalized value in BLU units (SPOT analysis, Myo5 SH3)” value [3] was 121.7 BLU.

In the case of KFPLMDKPSIPTLR, the “The normalized value in BLU units (SPOT analysis, Myo5 SH3)” value [3] is reported as 431.6 BLU.

For KFRQMFKPLAPNTR, the “The normalized value in BLU units” value [1] was 1217.4 BLU.

In the case of KFTDMLDPEKPNVI, the “The normalized value in BLU units” value [1] is reported as 262.4 BLU.

With KFTDMQVPKGPVCP the “The normalized value in BLU units (SPOT analysis, Myo5 SH3)” value [3] was 197.0 BLU.

KFVIHNEPIDPSDK was tested, and the “The normalized value in BLU units” value [1] was 46.7 BLU.

For KGVLKEYPMRPYGS, the “The normalized value in BLU units” value [1] was 116.8 BLU.

With KHEPKKSPTTPALA the “The normalized value in BLU units (SPOT analysis, Myo5 SH3)” value [4] was 726.2 BLU.

KIIKKCSPSVPKEE was tested, and the “The normalized value in BLU units” value [2] was 242.5 BLU.

KITKKLGPKLPKAS was tested, and the “The normalized value in BLU units (SPOT analysis, Myo5 SH3)” value [4] was 680.7 BLU.

KIVERGPPYPPDLR was tested, and the “The normalized value in BLU units” value [2] was 137.7 BLU.

With KIVRRDYPSTPVIV the “The normalized value in BLU units” value [1] was 366.1 BLU.

KKHDKLHPNYPSVK was tested, and the “The normalized value in BLU units (SPOT analysis, Myo5 SH3)” value [4] was 406.8 BLU.

For KKHDKLYPKYPSVK, the “The normalized value in BLU units (SPOT analysis, Myo5 SH3)” value [4] was 339.6 BLU.

In the case of KKIAKGDPKIPMQN, the “The normalized value in BLU units” value [2] is reported as 720.5 BLU.

With KKIIKDVPGTPSDK the “The normalized value in BLU units” value [2] was 162.7 BLU.

KKKKKNGPGAPQGY was tested, and the “The normalized value in BLU units” value [2] was 328.8 BLU.

In the case of KKNDRPSPLKPIQH, the “The normalized value in BLU units” value [2] is reported as 340.9 BLU.

In the case of KKNKKKVPLNPLAK, the “The normalized value in BLU units” value [1] is reported as 522.6 BLU.

For KKNPKKSPMGPQGA, the “The normalized value in BLU units (SPOT analysis, Myo5 SH3)” value [4] was 1007.5 BLU.

With KKVIRNYPGHPEGT the “The normalized value in BLU units (SPOT analysis, Myo5 SH3)” value [4] was 417.8 BLU.

For KLAILTCPFEPPKP, the “The normalized value in BLU units” value [1] was 173.2 BLU.

KLALHQYPNFPSEG was tested, and the “The normalized value in BLU units” value [1] was 130.3 BLU.

With KLAPLNCPSLPTTN the “The normalized value in BLU units” value [1] was 211.6 BLU.

With KLDPLGEPFDPNKH the “The normalized value in BLU units” value [1] was 275.7 BLU.

In the case of KLEDLNEPLSPWIS, the “The normalized value in BLU units (SPOT analysis, Myo5 SH3)” value [3] is reported as 71.1 BLU.

KLFVLLPPIDPKDG was tested, and the “The normalized value in BLU units” value [1] was 258.2 BLU.

For KLGRFTNPQQPRED, the “The normalized value in BLU units (SPOT analysis, Myo5 SH3)” value [3] was 227.3 BLU.

In the case of KLHEKYFPDLPKEV, the “The normalized value in BLU units” value [2] is reported as 110.4 BLU.

In the case of KLKIKILPEQPQLE, the “The normalized value in BLU units” value [2] is reported as 261.3 BLU.

KLKSLNLPQLPPPK was tested, and the “The normalized value in BLU units” value [1] was 674.9 BLU.

KLNCLQIPHLPPSV was tested, and the “The normalized value in BLU units (SPOT analysis, Myo5 SH3)” value [3] was 349.8 BLU.

KLNKRVLPSKPKKS was tested, and the “The normalized value in BLU units” value [2] was 918.8 BLU.

With KLPDLKLPPSPVPS the “The normalized value in BLU units” value [1] was 231.2 BLU.

KLPKKFPPPTPLLE was tested, and the “The normalized value in BLU units” value [2] was 19656.3 BLU.

KLPKLNVPLNPKGK was tested, and the “The normalized value in BLU units (SPOT analysis, Myo5 SH3)” value [3] was 304.7 BLU.

With KLPQLPPPPPPPPP the “The normalized value in BLU units (SPOT analysis, Myo5 SH3)” value [3] was 54143.7 BLU.

With KLVKFKLPFLPISD the “The normalized value in BLU units” value [1] was 974.1 BLU.

KLVLRNVPILPILN was tested, and the “The normalized value in BLU units” value [2] was 303.3 BLU.

KLWDLSKPSKPLKE was tested, and the “The normalized value in BLU units (SPOT analysis, Myo5 SH3)” value [3] was 233.1 BLU.

With KLYYRHRPQKPVRT the “The normalized value in BLU units” value [2] was 915.7 BLU.

In the case of KMAKKLLPYKPHNS, the “The normalized value in BLU units (SPOT analysis, Myo5 SH3)” value [4] is reported as 707.5 BLU.

For KMSAKNTPKHPVDI, the “The normalized value in BLU units (SPOT analysis, Myo5 SH3)” value [4] was 307.2 BLU.

KNIIKYVPWGPPLE was tested, and the “The normalized value in BLU units” value [1] was 164.4 BLU.

KNILKVCPVLPSIL was tested, and the “The normalized value in BLU units (SPOT analysis, Myo5 SH3)” value [4] was 117.9 BLU.

KNLKKYDPEDPNRR was tested, and the “The normalized value in BLU units” value [2] was 207.1 BLU.

In the case of KNLLREIPQVPAFQ, the “The normalized value in BLU units (SPOT analysis, Myo5 SH3)” value [4] is reported as 104.1 BLU.

KNPTKSPPPPPSPS was tested, and the “The normalized value in BLU units (SPOT analysis, Myo5 SH3)” value [4] was 27847.4 BLU.

KPAGRPIPPAPTHY was tested, and the “The normalized value in BLU units (SPOT analysis, Myo5 SH3)” value [4] was 189.4 BLU.

With KPAVLHYPPIPASA the “The normalized value in BLU units (SPOT analysis, Myo5 SH3)” value [3] was 183.1 BLU.

KPKMLPIPSKPTLF was tested, and the “The normalized value in BLU units” value [1] was 1355.0 BLU.

In the case of KPKVLFHPHWPLYI, the “The normalized value in BLU units” value [1] is reported as 195.5 BLU.

For KPLKFLRPTYPDLC, the “The normalized value in BLU units” value [1] was 149.2 BLU.

KPLNLSKPISPPPS was tested, and the “The normalized value in BLU units” value [1] was 254.3 BLU.

KPMLHNVPHDPSLP was tested, and the “The normalized value in BLU units” value [1] was 412.6 BLU.

For KPPSYPSPAQPPKS, the “The normalized value in BLU units (SPOT analysis, Myo5 SH3)” value [3] was 11899.6 BLU.

KPPSYPSPVQPPQS was tested, and the “The normalized value in BLU units (SPOT analysis, Myo5 SH3)” value [3] was 16459.5 BLU.

With KPPVYRLPPLPRLK the “The normalized value in BLU units” value [1] was 2305.8 BLU.

For KPSGYYGPNSPLKL, the “The normalized value in BLU units” value [1] was 159.2 BLU.

With KPSLWEAPQNPPYS the “The normalized value in BLU units” value [1] was 152.4 BLU.

For KPSVMKLPPSPKQP, the “The normalized value in BLU units (SPOT analysis, Myo5 SH3)” value [3] was 380.5 BLU.

In the case of KQAKRAPPSSPYVV, the “The normalized value in BLU units (SPOT analysis, Myo5 SH3)” value [4] is reported as 295.0 BLU.

With KQKKKPTPTRPYNY the “The normalized value in BLU units” value [2] was 516.2 BLU.

In the case of KQLKKQGPKRPSSA, the “The normalized value in BLU units” value [1] is reported as 468.1 BLU.

With KQLMKNLPKIPLLN the “The normalized value in BLU units” value [2] was 580.1 BLU.

In the case of KQRIRKIPGIPLMS, the “The normalized value in BLU units (SPOT analysis, Myo5 SH3)” value [4] is reported as 621.8 BLU.

In the case of KQSKRARPSSPYTV, the “The normalized value in BLU units (SPOT analysis, Myo5 SH3)” value [4] is reported as 271.3 BLU.

For KRKAKAPPPPPPPP, the “The normalized value in BLU units (SPOT analysis, Myo5 SH3)” value [4] was 4025.3 BLU.
